{"source": "patent US20070082914A1", "about": "“4-(4-Methylpiperazin-1-ylmethyl)-n-[4-methyl-3-(4-pyridin-3-yl)pyrimidin-2-ylamino)phenyl]-benzamide for treating pulmonary fibrosis” (priority 2002, published 2007)", "test_system": "Asbestos-Exposed Mice", "experiment": "Asbestos-exposed mice: morphometric analysis of first alveolar duct bifurcations", "assay_type": "in vivo", "conditions": "asbestos-exposed C57BL/6 mice, 30 days following exposure", "protocol": "Asbestos Exposure: Eight week old C57BL/6 mice are exposed to 15 mg/m^3 of chrysotile asbestos in inhalation chambers for a period of 5 hours, for 3 consecutive days, as described previously in detail in our earlier publications (Lasky et al. Am. J. Respir. Crit. Care Med. (1998) 157:1652-7). This asbestos exposure induces fibroblast proliferation and a morphometrically characterized lesion at the alveolar duct bifurcations (Brody et al., Am Rev Respir Dis. (1981) 123:670-9). Sham-exposed (ambient air) animals are used as controls. The groups include: sham-exposed with vehicle; asbestos-exposed with vehicle; and asbestos exposed with COMPOUND I (imatinib mesylate). Five mice from each of these […] are sacrificed 30 days following exposure and used for determining the dimensions of the alveolar duct bifurcations. […]\nMorphometric Analysis: H & E stained sections from exposed and control animals from the 30 day time point are masked. Bifurcation area is measured using an Olympus microscope with a video camera interfacing with a PC utilizing V150 imaging software (Fermin et al., J Anat. (1995) 186:469-81). The total area and perimeter of each of five first alveolar duct bifurcations is measured as previously described (Perdue et al., J. Histochem. Cytochem. (1994) 42:1061-70). […]", "note": "Structures can show the parent of a compound that is named as a salt."}
{"smiles": "Cc1ccc(NC(=O)c2ccc(CN3CCN(C)CC3)cc2)cc1Nc1nccc(-c2cccnc2)n1", "note": "[SALT I, 4[-(4-methyl-1-piperazin-1-ylmethyl)-N-[4-methyl-3-[[4-(3-pyridinyl)-2-pyrimidinyl]amino]phenyl]benzamide methanesulfonate]", "values": [{"measurement": "First alveolar duct area", "setting": "100 mg COMPOUND I free base/kg i.p. once per day, from the day preceding exposure and for 14 days thereafter, group mean", "value": 1875, "unit": "square micrometers"}, {"measurement": "reduction of the size of the lesion (fibrotic scar at first alveolar duct bifurcations)", "setting": "100 mg free base/kg i.p. once per day, P=0.02", "value": 43, "unit": "%"}]}
